Biological target: T1, hMAGL (Homo sapiens, UniProt Q99685)
T1 sequence (Q99685 1-303): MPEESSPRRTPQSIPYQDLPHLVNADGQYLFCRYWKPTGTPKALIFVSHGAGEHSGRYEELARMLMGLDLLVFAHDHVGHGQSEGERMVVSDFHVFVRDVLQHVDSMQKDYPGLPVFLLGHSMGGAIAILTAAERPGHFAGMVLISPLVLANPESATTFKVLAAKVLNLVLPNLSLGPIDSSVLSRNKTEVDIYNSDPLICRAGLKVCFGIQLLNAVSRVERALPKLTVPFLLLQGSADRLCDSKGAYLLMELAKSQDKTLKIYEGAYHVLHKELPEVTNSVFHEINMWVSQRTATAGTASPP
Experiment: 2-AG assay: MAGL inhibition, hydrolysis of 2-arachidonoylglycerol to arachidonic acid followed by mass spectrometry
Assay type: biochemical
Summary of the method: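 Read-out is LC-MS/MS of arachidonic acid released from 2-arachidonoylglycerol (8 μM final), normalised to d8-arachidonic acid internal standard after acetonitrile quench. Enzyme […] and compound were pre-mixed 15 min, then reacted 30 min, both at RT, in Tris/EDTA buffer with 0.01% Tween-20 and 2.5% DMSO.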

Structure (SMILES): O=C(N1CC2(CC(Cc3n[nH]c(C(F)(F)F)n3)C2)C1)N1CC2(CC(n3cnc(C(F)(F)F)n3)C2)C1 [Example 9, [6-[3-(trifluoromethyl)-1,2,4-triazol-1-yl]-2-azaspiro[3.3]heptan-2-yl]-[6-[[5-(trifluoromethyl)-1H-1,2,4-triazol-3-yl]methyl]-2-azaspiro[3.3]heptan-2-yl]methanone]
- IC50: 7.07 nM

Structure (SMILES): O=C(N1CC2(CC(Cc3noc(C(F)(F)F)n3)C2)C1)N1CC2(CC(n3cnc(C4(O)CC4)n3)C2)C1 [Example 105]
- IC50: 14.1 nM

Structure (SMILES): O=C(N1CC2(CC(n3cnc(C4CC4)n3)C2)C1)N1CC2(CN(Cc3nc(C(F)(F)F)n[nH]3)C2)C1 [Example 230, [6-(3-cyclopropyl-1,2,4-triazol-1-yl)-2-azaspiro[3.3]heptan-2-yl]-[6-[[3-(trifluoromethyl)-1H-1,2,4-triazol-5-yl]methyl]-2,6-diazaspiro[3.3]heptan-2-yl]methanone]
- IC50: 672 nM

Structure (SMILES): Cn1cnc(C#N)c1CN1CC2(C1)CN(C(=O)N1CC3(CC(n4cnc(C5CC5)n4)C3)C1)C2 [Example 281, 5-[[2-[6-(3-cyclopropyl-1,2,4-triazol-1-yl)-2-azaspiro[3.3]heptane-2-carbonyl]-2,6-diazaspiro[3.3]heptan-6-yl]methyl]-1-methyl-imidazole-4-carbonitrile]
- IC50: 164 nM

Structure (SMILES): Cn1ncc(CN2CC3(C2)CN(C(=O)N2CC4(CC(c5cc(C6CC6)n[nH]5)C4)C2)C3)c1C(F)(F)F [Example 163, [6-(3-cyclopropyl-1H-pyrazol-5-yl)-2-azaspiro[3.3]heptan-2-yl]-[6-[[1-methyl-5-(trifluoromethyl)pyrazol-4-yl]methyl]-2,6-diazaspiro[3.3]heptan-2-yl]methanone]
- IC50: 3.3 nM

Structure (SMILES): Cn1nccc1CN1CC2(C1)CN(C(=O)N1CC3(CC(n4cnc(C5CC5)n4)C3)C1)C2 [Example 277, [6-(3-cyclopropyl-1,2,4-triazol-1-yl)-2-azaspiro[3.3]heptan-2-yl]-[6-[(2-methylpyrazol-3-yl)methyl]-2,6-diazaspiro[3.3]heptan-2-yl]methanone]
- IC50: 355 nM

Structure (SMILES): O=C(N1CC2(CC(Cn3cc(S(=O)(=O)C(F)(F)F)cn3)C2)C1)N1CC2(CC(n3cnc(C(F)(F)F)n3)C2)C1 [Example 353, [6-[3-(trifluoromethyl)-1,2,4-triazol-1-yl]-2-azaspiro[3.3]heptan-2-yl]-[6-[(4-triflylpyrazol-1-yl)methyl]-2-azaspiro[3.3]heptan-2-yl]methanone]
- IC50: 0.19 nM

Structure (SMILES): CC(C)(C)c1nnc(CN2CC3(C2)CN(C(=O)N2CC4(CC(n5cnc(C6(O)CC6)n5)C4)C2)C3)s1 [Example 210, [6-[(5-tert-butyl-1,3,4-thiadiazol-2-yl)methyl]-2,6-diazaspiro[3.3]heptan-2-yl]-[6-[3-(1-hydroxycyclopropyl)-1,2,4-triazol-1-yl]-2-azaspiro[3.3]heptan-2-yl]methanone]
- IC50: 28 nM

Structure (SMILES): O=C(N1CC2(CC(n3cnc(C(F)(F)F)n3)C2)C1)N1CC2(CN(Cc3cnc(C(F)(F)F)o3)C2)C1 [Example 211, [6-[[2-(trifluoromethyl)oxazol-5-yl]methyl]-2,6-diazaspiro[3.3]heptan-2-yl]-[6-[3-(trifluoromethyl)-1,2,4-triazol-1-yl]-2-azaspiro[3.3]heptan-2-yl]methanone]
- IC50: 52.9 nM

Structure (SMILES): O=C(N1CC2(CC(Cc3cc(C4(C(F)(F)F)CC4)[nH]n3)C2)C1)N1CC2(CC(n3cnc(C(F)(F)F)n3)C2)C1 [Example 354]
- IC50: 0.14 nM

Structure (SMILES): Cn1nc(CN2CC3(C2)CN(C(=O)N2CC4(CC(n5cnc(C(F)(F)F)n5)C4)C2)C3)cc1C(F)(F)F [Example 161, [6-[[1-methyl-5-(trifluoromethyl)pyrazol-3-yl]methyl]-2,6-diazaspiro[3.3]heptan-2-yl]-[6-[3-(trifluoromethyl)-1,2,4-triazol-1-yl]-2-azaspiro[3.3]heptan-2-yl]methanone]
- IC50: 2.39 nM

Structure (SMILES): Cn1nc(CN2CC3(C2)CN(C(=O)N2CC4(CC(c5cc(C6CC6)n[nH]5)C4)C2)C3)cc1C(F)(F)F [Example 160]
- IC50: 2.08 nM

Structure (SMILES): O=C(N1CC2(CC(Cc3cnn(CC(F)(F)F)n3)C2)C1)N1CC2(CC(n3cnc(C4CC4)n3)C2)C1 [Example 350, [6-(3-cyclopropyl-1,2,4-triazol-1-yl)-2-azaspiro[3.3]heptan-2-yl]-[6-[[2-(2,2,2-trifluoroethyl)triazol-4-yl]methyl]-2-azaspiro[3.3]heptan-2-yl]methanone]
- IC50: 0.92 nM

Structure (SMILES): O=C(N1CC2(CC(n3cnc(C4CC4)n3)C2)C1)N1CC2(CN(Cc3nc(CC4CC4)no3)C2)C1 [Example 265, [6-[[3-(cyclopropylmethyl)-1,2,4-oxadiazol-5-yl]methyl]-2,6-diazaspiro[3.3]heptan-2-yl]-[6-(3-cyclopropyl-1,2,4-triazol-1-yl)-2-azaspiro[3.3]heptan-2-yl]methanone]
- IC50: 9.94 nM

Structure (SMILES): O=C(N1CC2(CC(Cn3ncnc3C(F)(F)F)C2)C1)N1CC2(CC(n3cnc(C4(O)CC4)n3)C2)C1 [Example 325, [6-[3-(1-hydroxycyclopropyl)-1,2,4-triazol-1-yl]-2-azaspiro[3.3]heptan-2-yl]-[6-[[5-(trifluoromethyl)-1,2,4-triazol-1-yl]methyl]-2-azaspiro[3.3]heptan-2-yl]methanone]
- IC50: 23.1 nM

Structure (SMILES): O=C(N1CC2(CC(Cn3cnc(C4(C(F)(F)F)CC4)n3)C2)C1)N1CC2(CC(n3cnc(C4(O)CC4)n3)C2)C1 [Example 75, [6-[3-(1-hydroxycyclopropyl)-1,2,4-triazol-1-yl]-2-azaspiro[3.3]heptan-2-yl]-[6-[[3-[1-(trifluoromethyl)cyclopropyl]-1,2,4-triazol-1-yl]methyl]-2-azaspiro[3.3]heptan-2-yl]methanone]
- IC50: 7.62 nM

Structure (SMILES): Cc1cc(C(F)(F)F)nn1CC1CC2(C1)CN(C(=O)N1CC3(CC(n4cnc(C(F)(F)F)n4)C3)C1)C2 [Example 68, [6-[[5-methyl-3-(trifluoromethyl)pyrazol-1-yl]methyl]-2-azaspiro[3.3]heptan-2-yl]-[6-[3-(trifluoromethyl)-1,2,4-triazol-1-yl]-2-azaspiro[3.3]heptan-2-yl]methanone]
- IC50: 5.8 nM

Structure (SMILES): Cn1ncc(CN2CC3(C2)CN(C(=O)N2CC4(CC(n5cnc(C(F)(F)F)n5)C4)C2)C3)c1S(N)(=O)=O [Example 250, 2-methyl-4-[[2-[6-[3-(trifluoromethyl)-1,2,4-triazol-1-yl]-2-azaspiro[3.3]heptane-2-carbonyl]-2,6-diazaspiro[3.3]heptan-6-yl]methyl]pyrazole-3-sulfonamide]
- IC50: 969 nM

Structure (SMILES): O=C(N1CC2(CC(Cc3n[nH]c(C(F)(F)F)n3)C2)C1)N1CC2(CC(n3cnc(C4CC4)n3)C2)C1 [Example 10]
- IC50: 1.96 nM

Structure (SMILES): O=C(N1CC2(CC(Cc3cn(CC(F)(F)F)nc3C(F)(F)F)C2)C1)N1CC2(CC(n3cnc(C4(O)CC4)n3)C2)C1 [Example 120, [6-[3-(1-hydroxycyclopropyl)-1,2,4-triazol-1-yl]-2-azaspiro[3.3]heptan-2-yl]-[6-[[1-(2,2,2-trifluoroethyl)-3-(trifluoromethyl)pyrazol-4-yl]methyl]-2-azaspiro[3.3]heptan-2-yl]methanone]
- IC50: 0.81 nM

Structure (SMILES): O=C(N1CC2(CC(Cc3n[nH]c(C4CC4)n3)C2)C1)N1CC2(CC(n3cnc(C(F)F)n3)C2)C1 [Example 318, [6-[(5-cyclopropyl-1H-1,2,4-triazol-3-yl)methyl]-2-azaspiro[3.3]heptan-2-yl]-[6-[3-(difluoromethyl)-1,2,4-triazol-1-yl]-2-azaspiro[3.3]heptan-2-yl]methanone]
- IC50: 62.8 nM

Structure (SMILES): CC(C)(C)c1c[nH]c(CN2CC3(C2)CN(C(=O)N2CC4(CC(n5cnc(C(F)(F)F)n5)C4)C2)C3)n1 [Example 252, [6-[(4-tert-butyl-1H-imidazol-2-yl)methyl]-2,6-diazaspiro[3.3]heptan-2-yl]-[6-[3-(trifluoromethyl)-1,2,4-triazol-1-yl]-2-azaspiro[3.3]heptan-2-yl]methanone]
- IC50: 117 nM

Structure (SMILES): O=C(N1CC2(CC(n3cnc(C(F)(F)F)n3)C2)C1)N1CC2(CN(Cc3nc(C(F)(F)F)n[nH]3)C2)C1 [Example 229, [6-[3-(trifluoromethyl)-1,2,4-triazol-1-yl]-2-azaspiro[3.3]heptan-2-yl]-[6-[[3-(trifluoromethyl)-1H-1,2,4-triazol-5-yl]methyl]-2,6-diazaspiro[3.3]heptan-2-yl]methanone]
- IC50: 1200 nM

Structure (SMILES): O=C(N1CC2(CC(n3cnc(C(F)(F)F)n3)C2)C1)N1CC2(CN(Cc3ncc(C(F)(F)F)s3)C2)C1 [Example 149]
- IC50: 1.78 nM

Structure (SMILES): Cn1nc(C(F)(F)F)cc1CN1CCC2(CC1)CN(C(=O)N1CC3(CC(n4cnc(C5(O)CC5)n4)C3)C1)C2 [Example 27, [6-[3-(1-hydroxycyclopropyl)-1,2,4-triazol-1-yl]-2-azaspiro[3.3]heptan-2-yl]-[7-[[2-methyl-5-(trifluoromethyl)pyrazol-3-yl]methyl]-2,7-diazaspiro[3.5]nonan-2-yl]methanone]
- IC50: 122 nM

Structure (SMILES): O=C(N1CC2(CC(n3cnc(C4CC4)n3)C2)C1)N1CC2(CN(Cc3cnn4ccccc34)C2)C1 [Example 285, [6-(3-cyclopropyl-1,2,4-triazol-1-yl)-2-azaspiro[3.3]heptan-2-yl]-[6-(pyrazolo[1,5-a]pyridin-3-ylmethyl)-2,6-diazaspiro[3.3]heptan-2-yl]methanone]
- IC50: 13.4 nM

Structure (SMILES): Cc1c(CN2CC3(C2)CN(C(=O)N2CC4(CC(n5cnc(C6CC6)n5)C4)C2)C3)cnn1C [Example 309, [6-(3-cyclopropyl-1,2,4-triazol-1-yl)-2-azaspiro[3.3]heptan-2-yl]-[6-[(1,5-dimethylpyrazol-4-yl)methyl]-2,6-diazaspiro[3.3]heptan-2-yl]methanone]
- IC50: 183 nM

Reference: patent publication US20260374756A1, “HETEROCYCLIC COMPOUNDS AS INHIBITORS OF MONOACYLGLYCEROL LIPASE (MAGL)” (Hoffmann-La Roche Inc., priority 2022, published 2026)
